In ChEMBL document CHEMBL6078725, “Discovery of novel xanthohumol C derivatives regulating XRCC2 transcription and expression for the treatment of colorectal cancer” (Bioorg Med Chem, 2025):

Columns and labels:
RKO = experiment: Antiproliferative activity against human RKO cells incubated for 48 hrs by MTS assay; type: functional, cell-based
HCT-116 = experiment: Antiproliferative activity against human HCT-116 cells incubated for 48 hrs by MTS assay; type: functional, cell-based; settings: HCT-116, 48 h

| SMILES | IC50 (HCT-116) [µM] | IC50 (RKO) [µM] |
| --- | --- | --- |
| COc1cc2c(c(O)c1C(=O)/C=C/c1ccc(N3CCCCC3)cc1)C=CC(C)(C)O2 | 200 | > 200 |
| COc1cc2c(c(OC)c1C(=O)/C=C/c1ccc(Cl)cc1)C=CC(C)(C)O2 | > 12.7 | 9.04 |
| COc1cc2c(c(O)c1C(=O)/C=C/c1ccc(C(F)(F)F)cc1)C=CC(C)(C)O2 | 26.2 | 25.4 |
| COc1cc2c(c(O)c1C(=O)/C=C/c1cn(C)c3ccccc13)C=CC(C)(C)O2 | > 200 | > 200 |
| COc1cc2c(c(O)c1C(=O)/C=C/c1ccc(O)cc1)C=CC(C)(C)O2 [XANTHOHUMOL C] | 25.9 | 28.5 |
| COc1cc(/C=C/C(=O)c2c(OC)cc3c(c2O)C=CC(C)(C)O3)cc(OC)c1OC | 25.4 | 21.5 |
| COc1ccc(/C=C/C(=O)c2c(OC)cc3c(c2O)C=CC(C)(C)O3)c(OC)c1OC | 26.3 | 23.2 |
| CCOc1ccc(Br)cc1/C=C/C(=O)c1c(OC)cc2c(c1O)C=CC(C)(C)O2 | 117 | 165 |
| COc1cc2c(c(O)c1C(=O)/C=C/c1ccc(C(C)C)cc1)C=CC(C)(C)O2 | 79.1 | 69.5 |

More lines, main results first:

| IC50 (HCT-116) [µM] | SMILES | IC50 (RKO) [µM] |
| --- | --- | --- |
| 36.7 | COc1cc2c(c(O)c1C(=O)/C=C/c1cccc(Br)c1)C=CC(C)(C)O2 | 35.9 |
| 24.9 | COc1cc(/C=C/C(=O)c2c(OC)cc3c(c2O)C=CC(C)(C)O3)cc(OC)c1 | 25.1 |
| 12.5 | COc1cc2c(c(O)c1C(=O)/C=C/c1ccc(N3CCN(C)CC3)cc1)C=CC(C)(C)O2 | 13.5 |
| 24.8 | COc1cc(/C=C/C(=O)c2c(OC)cc3c(c2O)C=CC(C)(C)O3)ccc1O | 17.6 |
| > 200 | CCN(CC)c1ccc(/C=C/C(=O)c2c(OC)cc3c(c2O)C=CC(C)(C)O3)cc1 | > 200 |
| 12.5 | COc1cc2c(c(O)c1C(=O)/C=C/c1cccc(N3CCN(C)CC3)c1)C=CC(C)(C)O2 | 128 |
| 163 | COc1cc2c(c(O)c1C(=O)/C=C/c1ccc([N+](=O)[O-])cc1)C=CC(C)(C)O2 | 133 |
| 24.9 | COc1cc2c(c(O)c1C(=O)/C=C/c1ccccc1)C=CC(C)(C)O2 | 23.6 |
| 44.6 | COc1ccc(/C=C/C(=O)c2c(OC)cc3c(c2O)C=CC(C)(C)O3)cc1Br | 35.6 |
| 24.6 | COc1cc2c(c(O)c1C(=O)/C=C/c1ccc(O)c(Br)c1)C=CC(C)(C)O2 | 21.1 |
